Article PMC12514841 (Protein Science : A Publication of the Protein Society, 2025)
“And” between values parts separate entries of the source, which are not always exact repeats. Equal values may be shown once.

How the values were obtained:
Type in all cases: biochemical
BlaC I105Y-S130G [1] = target: T1, BlaC I105Y-S130G (Mycobacterium tuberculosis, UniProt P9WKD3, I117Y/S142G)
BlaC I105G-G132N [2] = target: T2, BlaC I105G-G132N (Mycobacterium tuberculosis, UniProt P9WKD3, G144N/I117G)
BlaC I105Y = BlaC I105Y (Mycobacterium tuberculosis, UniProt P9WKD3, I117Y); details: pH 6.4
BlaC S130G = BlaC S130G (Mycobacterium tuberculosis, UniProt P9WKD3, S142G)
BlaC I105Y-S130G [3] = target: T1, BlaC I105Y-S130G; details: pH 6.4
BlaC I105G = BlaC I105G (Mycobacterium tuberculosis, UniProt P9WKD3, I117G); details: pH 6.4
BlaC G132N = BlaC G132N (Mycobacterium tuberculosis, UniProt P9WKD3, G132N/G144N)
BlaC I105G-G132N [4] = target: T2, BlaC I105G-G132N; remark: listed apart in the source

## O=C(O)[C@H]1/C(=C/CO)O[C@@H]2CC(=O)N21 [Clavulanic acid, clavulanic acid]
BlaC I105Y-S130G [1]
  incubation time after which the enzyme is fully inhibited: 2 h
  state of the enzyme after 24 h of incubation: stays fully inhibited
BlaC I105Y-S130G [1]; read-out: recovery of activity, of the control activity
  activity: 63%
BlaC I105G-G132N [2]
  course of residual activity during incubation: initially a slight drop in activity, followed by a swift recovery

## O=C(Cc1cccs1)N[C@@H]1C(=O)N2C(C(=O)O)=C(/C=C/c3ccc([N+](=O)[O-])cc3[N+](=O)[O-])CS[C@H]12 [Nitrocefin, nitrocefin]
BlaC I105Y
  K M ^app: 18 ± 1 µM
  k cat: 39 ± 10 s⁻¹
  k cat /K M ^app relative to the wild-type: 4.2 ± 0.2
  k cat/K M ^app: 2.1 ± 0.1 µM⁻¹ s⁻¹
BlaC S130G
  fold decrease in k cat/K M ^app compared to the wild-type: approximately 30 fold
BlaC S130G; pH 6.4
  K M ^app: 358 ± 4 µM
  k cat: 5 ± 1 s⁻¹
  k cat /K M ^app relative to the wild-type: 0.03 ± 0.01
  k cat/K M ^app: 0.014 ± 0.003 µM⁻¹ s⁻¹
BlaC I105Y-S130G [3]
  k cat: 21 ± 7 and 21 ± 7 s^−1
  k cat /K M ^app relative to the wild-type: 0.08 ± 0.04
  kcat: 13 ± 4 s⁻¹ and 13 ± 1 s⁻¹
BlaC I105G
  K M ^app: 240 ± 40 µM
  k cat: 79 ± 5 s⁻¹
  k cat /K M ^app relative to the wild-type: 0.68 ± 0.04
  k cat/K M ^app: 0.34 ± 0.02 µM⁻¹ s⁻¹
BlaC G132N; pH 6.4
  K M ^app: 210 ± 30 µM
  k cat: 18 ± 2 s⁻¹
  k cat /K M ^app relative to the wild-type: 0.16 ± 0.04
  k cat/K M ^app: 0.08 ± 0.02 µM⁻¹ s⁻¹
BlaC I105G-G132N [4]; pH 6.4
  K M ^app: 115 ± 1 µM
  k cat: 41 ± 1 s⁻¹
  k cat /K M ^app relative to the wild-type: 0.71 ± 0.01
  k cat/K M ^app: 0.357 ± 0.005 µM⁻¹ s⁻¹

## CC1(C)S[C@@H]2[C@H](NC(=O)[C@H](N)c3ccccc3)C(=O)N2[C@H]1C(=O)O [Ampicillin, ampicillin]
BlaC I105Y
  KMapp: 89 ± 7 µM
  k cat: 48 ± 1 and 48 ± 1 s^−1
  k cat /K M ^app relative to the wild-type: 4.43 ± 0.1
  k cat/K M ^app: 0.98 ± 0.02 and 0.98 ± 0.02 μM^−1 s^−1
  kcat: 28 ± 1 s⁻¹
  kcat/KMapp: 320000 ± 30000 M⁻¹ s⁻¹
  kcat/KMapp relative to the wild-type: 1.52 ± 0.14
BlaC S130G
  fold decrease in k cat/K M ^app compared to the wild-type: approximately 30 fold
  fold higher activity in MES than in phosphate buffer: roughly 5 fold
  k cat fold lower than for wild-type BlaC: 8 fold
  k cat times higher than for wild-type BlaC: 2.5 times
BlaC S130G; pH 6.4
  KMapp: 588 µM
  k cat: 1.7 ± 1 and 1.7 ± 1 s^−1
  k cat /K M ^app relative to the wild-type: 0.03 ± 0.01
  k cat/K M ^app: 0.007 ± 0.001 and 0.007 ± 0.001 μM^−1 s^−1
  kcat: 21 ± 1 s⁻¹
  kcat/KMapp: 35000 ± 1000 M⁻¹ s⁻¹
  kcat/KMapp relative to the wild-type: 0.165 ± 0.005
BlaC I105Y-S130G [3]
  KMapp: 813 ± 132 µM
  k cat: 17 ± 1 and 17 ± 1 s^−1
  k cat /K M ^app relative to the wild-type: 0.270 ± 0.005
  k cat/K M ^app: 0.057 ± 0.001 and 0.057 ± 0.001 μM^−1 s^−1
  kcat: 23 ± 3 s⁻¹
  kcat/KMapp: 29000 ± 6000 M⁻¹ s⁻¹
  kcat/KMapp relative to the wild-type: 0.14 ± 0.03
BlaC I105G
  KMapp: 31 ± 6 µM
  k cat: 3.95 ± 0.04 and 3.95 ± 0.04 s^−1
  k cat /K M ^app relative to the wild-type: 1.00 ± 0.05
  k cat/K M ^app: 0.21 ± 0.01 and 0.21 ± 0.01 μM^−1 s^−1
  kcat: 6.0 ± 0.4 s⁻¹
  kcat/KMapp: 210000 ± 40000 M⁻¹ s⁻¹
  kcat/KMapp relative to the wild-type: 1.00 ± 0.19
BlaC G132N; pH 6.4
  KMapp: 282 ± 9 µM
  k cat: 33 ± 12 and 33 ± 12 s^−1
  k cat /K M ^app relative to the wild-type: 0.10 ± 0.05
  k cat/K M ^app: 0.02 ± 0.01 and 0.02 ± 0.01 μM^−1 s^−1
  kcat: 61 ± 1 s⁻¹
  kcat/KMapp: 220000 ± 10000 M⁻¹ s⁻¹
  kcat/KMapp relative to the wild-type: 1.04 ± 0.05
BlaC I105G-G132N [4]
  factor by which the magnitude of positive epistasis diminished in MES buffer: 7.4
BlaC I105G-G132N [4]; pH 6.4
  KMapp: 183 ± 21 µM
  k cat: 18 ± 1 and 18 ± 1 s^−1
  k cat /K M ^app relative to the wild-type: 0.95 ± 0.05
  k cat/K M ^app: 0.20 ± 0.01 and 0.20 ± 0.01 μM^−1 s^−1
  kcat: 54 ± 2 s⁻¹
  kcat/KMapp: 300000 ± 40000 M⁻¹ s⁻¹
  kcat/KMapp relative to the wild-type: 1.42 ± 0.05

## CC1(C)S[C@@H]2[C@H](NC(=O)C(C(=O)O)c3ccccc3)C(=O)N2[C@H]1C(=O)O (stereo partly shown) [Carbenicillin, carbenicillin]
BlaC I105Y
  K M ^app: 1.5 ± 1 µM
  k cat: 2.0 ± 0.1 s⁻¹
  k cat /K M ^app relative to the wild-type: 14.9 ± 0.8
  k cat/K M ^app: 1.34 ± 0.07 µM⁻¹ s⁻¹
BlaC S130G; pH 6.4
  K M ^app: 72 ± 5 µM
  k cat: 1.2 ± 0.1 s⁻¹
  k cat /K M ^app relative to the wild-type: 0.22 ± 0.01
  k cat/K M ^app: 0.020 ± 0.001 µM⁻¹ s⁻¹
BlaC I105Y-S130G [3]
  K M ^app: 21 ± 3 µM
  k cat: 2.7 ± 0.2 s⁻¹
  k cat /K M ^app relative to the wild-type: 1.4 ± 0.2
  k cat/K M ^app: 0.13 ± 0.02 µM⁻¹ s⁻¹
BlaC I105G
  K M ^app: 1.5 ± 0.4 µM
  k cat: 0.12 ± 0.01 s⁻¹
  k cat /K M ^app relative to the wild-type: 0.90 ± 0.04
  k cat/K M ^app: 0.081 ± 0.004 µM⁻¹ s⁻¹
BlaC G132N
  times decrease in catalytic efficiency (k cat/K M ^app) versus the wild-type: 13 times
BlaC G132N; pH 6.4
  K M ^app: 224 ± 11 µM
  k cat: 1.62 ± 0.02 s⁻¹
  k cat /K M ^app relative to the wild-type: 0.080 ± 0.004
  k cat/K M ^app: 0.0072 ± 0.0004 µM⁻¹ s⁻¹
BlaC I105G-G132N [4]; pH 6.4
  K M ^app: 7.0 ± 0.9 µM
  k cat: 0.96 ± 0.07 s⁻¹
  k cat /K M ^app relative to the wild-type: 1.6 ± 0.2
  k cat/K M ^app: 0.14 ± 0.02 µM⁻¹ s⁻¹
